In PubChem BioAssay (NCI):
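GI50: concentration for 50% inhibition of growth. Definition used: TGI = concentration required for complete inhibition of growth.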

What was measured:
Experiment in all cases: NCI anticancer screen, dose series, 384-well format
A498 renal = tested on: A498 renal
A549 NSCLC = tested on: A549 NSCLC
ACHN renal = tested on: ACHN renal
COLO 205 colon = tested on: COLO 205 colon
HOP-92 NSCLC = tested on: HOP-92 NSCLC
HS 578T breast = tested on: HS 578T breast
HT29 colon = tested on: HT29 colon
OVCAR-8 ovarian = tested on: OVCAR-8 ovarian
RXF 393 renal = tested on: RXF 393 renal
SNB-19 CNS = tested on: SNB-19 CNS
U251 glioblastoma = tested on: U251 glioblastoma
UACC-257 melanoma = tested on: UACC-257 melanoma
UO-31 renal = tested on: UO-31 renal

SMILES: CNCc1ccc(C)c(NC(=O)c2ccc(Nc3nc(-c4ccccc4)c4ccccc4n3)cc2)c1
- GI50 (A498 renal): 1630 nM
- TGI (A498 renal): 3000 nM
- GI50 (A549 NSCLC): 1800 nM
- TGI (A549 NSCLC): 3.24 µM
- GI50 (ACHN renal): 1840 nM
- TGI (ACHN renal): 3.26 µM
- GI50 (COLO 205 colon): 1600 nM
- TGI (COLO 205 colon): 2960 nM
- GI50 (HOP-92 NSCLC): 1790 nM
- TGI (HOP-92 NSCLC): 3.18 µM
- GI50 (HS 578T breast): 1930 nM
- TGI (HS 578T breast): 3.34 µM
- GI50 (HT29 colon): 1410 nM
- TGI (HT29 colon): 2740 nM
- GI50 (OVCAR-8 ovarian): 1640 nM
- TGI (OVCAR-8 ovarian): 3.02 µM
- GI50 (RXF 393 renal): 1460 nM
- TGI (RXF 393 renal): 2790 nM
- GI50 (SNB-19 CNS): 1860 nM
- TGI (SNB-19 CNS): 3.31 µM
- GI50 (U251 glioblastoma): 1730 nM
- TGI (U251 glioblastoma): 3.13 µM
- GI50 (UACC-257 melanoma): 654 nM
- TGI (UACC-257 melanoma): 1600 nM
- GI50 (UO-31 renal): 1970 nM
- TGI (UO-31 renal): 3.4 µM
